Test results reported in patent US8486594B2, “P-terphenyl compound mixture and electrophotographic photoreceptors made by using the same” (Hodogaya Chemical Co., Ltd., priority 2006, dated 2013).

Key:
[1] = Solubility in organic solvent (tetrahydrofuran); assay type: physicochemical; settings: 25° C. tetrahydrofuran; % (weight/volume)
From the text: [Solubility in Organic Solvent]
The unit of solubility is % (weight/volume).

[2] = Dissolution of charge-transporting agent in tetrahydrofuran solution of polycarbonate resin for charge-transporting layer; assay type: physicochemical; settings: 12.2% tetrahydrofuran solution of polycarbonate resin (Yupilon Z), ultrasonic wave
Procedure: The p-terphenyl compound mixture was completely dissolved by propagating an ultrasonic wave thereto. This solution was applied to the charge-generating layer with a wire-wound bar and dried at 110° C. and ordinary pressure for […] to form a charge-transporting layer having a thickness of 20 μm. Thus, Photoreceptor No. 1 was produced.
Photoreceptor No. 6 was produced in the same manner as in Photoreceptor Example 1, except that the p-terphenyl compound singly synthesized as Compound No. 6 was used in place of the charge-transporting agent used in Photoreceptor Example 1.
Photoreceptor No. 7 was produced in the same manner as in Photoreceptor Example 1, except that the p-terphenyl compound singly synthesized as Compound No. 9 was used in place of the charge-transporting agent used in Photoreceptor Example 1.
The p-terphenyl compound mixture was completely dissolved by propagating an ultrasonic wave thereto. This solution was applied to the charge-generating layer with a wire-wound bar and dried at 110° C. and ordinary pressure for 30 minutes to form a charge-transporting layer having a thickness of 10 μm. Furthermore, a semitransparent metal electrode was formed on the charge-transporting layer by vapor deposition to produce Photoreceptor No. 8. […]

Structure (SMILES) | Solubility in tetrahydrofuran [1] [%] | dissolution of charge-transporting agent in coating solution [2]
Cc1ccc(N(c2ccc(C)cc2)c2ccc(-c3ccc(-c4ccc(N(c5ccc(C)cc5)c5ccc(C)cc5)cc4)cc3)cc2)cc1 [Compound No. 6, 4,4′-bis(4,4′-dimethyldiphenylamino)-p-terphenyl] | 2.0 | did not dissolve
c1ccc(N(c2ccccc2)c2ccc(-c3ccc(-c4ccc(N(c5ccccc5)c5ccccc5)cc4)cc3)cc2)cc1 [Compound No. 9, 4,4′-bis(diphenylamino)-p-terphenyl] | 2.0 | did not dissolve
Cc1ccc(N(c2ccccc2)c2ccc(-c3ccc(-c4ccc(N(c5ccccc5)c5ccc(C)cc5C)cc4)cc3)cc2)c(C)c1 [Compound No. 4, 4,4′-bis(2,4-dimethyldiphenylamino)-p-terphenyl] | 10.0 | 
Cc1ccc(N(c2ccccc2)c2ccc(-c3ccc(-c4ccc(N(c5ccccc5)c5ccc(C)cc5)cc4)cc3)cc2)cc1 [Compound No. 1, 4,4′-bis(4-methyldiphenylamino)-p-terphenyl] | 25.0 | 
